We go through one compound from US20250170157A1, “METHODS AND COMPOSITIONS FOR THE TREATMENT OF HEPATIC ENCEPHALOPATHY” (LEXICON PHARMACEUTICALS, INC., priority 2023, published 2025).

The structures appear in SMILES notation. Bounds are passed on as bounds.

Data set [1] relates to mice with STZ-induced diabetes. Nature of the data set: Effect of LX2761 on glycemic control and cecal pH in mice with STZ-induced diabetes. Type of data set: in vivo. As to conditions: adult male mice with well-established diabetes, single daily doses 1.5 or 3 mg/kg by oral gavage. On the procedure:
FIGS. 1A-1F present data showing the effect of LX2761 on glycemic control in mice with STZ-induced diabetes. […] Glucose excursions among groups were compared as glucose AUC0-120 minutes values. […] On day 49, the final study day, samples were obtained to measure FIG. 1C fasting blood glucose; FIG. 1D plasma tGLP-1; and FIG. 1E cecal glucose, reported as the total amount of glucose recovered.
This study evaluated the effect of orally administered LX2761 on glycemic control in preclinical models.
Mice and Rats. All studies were performed at Lexicon Pharmaceuticals, Inc., in strict accordance with the recommendations in the Guide for the Care and Use of Laboratory Animals of the National institutes of Health. The protocols for all studies were approved by the Lexicon Institutional Animal Care and Use Committee (OLAW Assurance Number A4152-01; AAALAC International Accreditation Number 001025). General methods for mouse and rat care have been described elsewhere. […] For all in vivo studies, mice and rats were fed HGD because glucose must be a major source of dietary calories if the effects of SGLT1 inhibition on glucose homeostasis are to be evaluated. […]
Glucose-Containing Meal Challenge. […] Vehicle or LX2761 was administered by oral gavage at 8:00 AM once daily for 4 consecutive days; body weight and food consumption were measured daily. […]

Data set [2] has as its system subjects with type 2 diabetes (T2DM). Nature of the data set: Phase 1 multiple ascending dose clinical study: safety and tolerability. Format: in vivo, human. On the procedure: (§1) A phase 1 multiple ascending dose (MAD) clinical study of LX2761 in otherwise healthy subjects with type 2 diabetes (T2DM) was conducted, following an earlier, single ascending dose study of the compound's safety and tolerability.
(§2) This study evaluated the safety and tolerability of orally administered LX2761 given qd (i.e., once daily) or bid (i.e., twice daily) for eight days, over a range of ascending multiple dose levels in subjects with T2DM. As secondary objectives, the study evaluated the PD and PK of LX2761. Of the 51 subjects enrolled in the study, 27 (52.9%) were male and 24 (47.1%) were female. Subject ages ranged from 41 to 65 years, with BMIs ranging from 20.1 to 39.8 kg/m^2.
(§3) Subjects taking LX2761 were grouped into five cohorts: Cohort A=LX2761 dosed 0.4 mg qd for 4 days followed by LX2761 dosed 0.6 mg qd for 4 days; Cohort A2=LX2761 dosed 0.2 mg bid for 8 days; Cohort B=LX2761 dosed 0.6 mg qd for 4 days followed by LX2761 dosed 0.8 mg qd for 4 days; Cohort C=LX2761 dosed 0.6 mg qd for 4 days followed by LX2761 dosed 1.0 mg qd for 4 days; Cohort C1=LX2761 dosed 0.4 mg bid for 8 days.
(§4) Reporting of TEAEs of diarrhea was not based on subject self-reporting. Given the mechanism of action of LX2761, osmotic diarrhea was expected to occur in all subjects receiving LX2761 based on either stool form or daily frequency. […] The study stopping rules defined gradation of diarrhea as follows: diarrhea of moderate intensity was defined as an increase of 4 to 5 stools/day over the normal pre-study count with moderate cramping that limits usual daily activity or may require simple therapeutic intervention; diarrhea of severe intensity was defined as an increase of 6 to 8 stools/day over the normal pre-study count with severe cramping or incontinence that prohibits usual daily activities or requires systemic drug therapy or other therapeutic intervention.

The test system is the same in data set [3]. Kind of data set: Phase 1 multiple ascending dose clinical study: bowel movement frequency and Bristol Stool Form (BSF) Scale. Format: in vivo, human. How it is done:
FIG. 2 provides a table with baseline Bristol Stool Form (BSF) Scale data for subjects taking placebo or LX2761 in a multiple ascending dose study.
as §1, §2, §3, §4

The conditions of data set [4]: rodents and humans; cited from earlier work.
Data set [5] is described as follows: Phase 1 multiple ascending dose clinical study: pharmacokinetics. Type of data set: in vivo, human. How it is done: as §1, §2, §3
For the next data set, the target named is T1, SGLT1 transporter (Homo sapiens, UniProt P13866).
T1 construct: from tissue; host or cells: intestine of human subjects with T2DM (in vivo clinical study)
T1 sequence (P13866 1-664): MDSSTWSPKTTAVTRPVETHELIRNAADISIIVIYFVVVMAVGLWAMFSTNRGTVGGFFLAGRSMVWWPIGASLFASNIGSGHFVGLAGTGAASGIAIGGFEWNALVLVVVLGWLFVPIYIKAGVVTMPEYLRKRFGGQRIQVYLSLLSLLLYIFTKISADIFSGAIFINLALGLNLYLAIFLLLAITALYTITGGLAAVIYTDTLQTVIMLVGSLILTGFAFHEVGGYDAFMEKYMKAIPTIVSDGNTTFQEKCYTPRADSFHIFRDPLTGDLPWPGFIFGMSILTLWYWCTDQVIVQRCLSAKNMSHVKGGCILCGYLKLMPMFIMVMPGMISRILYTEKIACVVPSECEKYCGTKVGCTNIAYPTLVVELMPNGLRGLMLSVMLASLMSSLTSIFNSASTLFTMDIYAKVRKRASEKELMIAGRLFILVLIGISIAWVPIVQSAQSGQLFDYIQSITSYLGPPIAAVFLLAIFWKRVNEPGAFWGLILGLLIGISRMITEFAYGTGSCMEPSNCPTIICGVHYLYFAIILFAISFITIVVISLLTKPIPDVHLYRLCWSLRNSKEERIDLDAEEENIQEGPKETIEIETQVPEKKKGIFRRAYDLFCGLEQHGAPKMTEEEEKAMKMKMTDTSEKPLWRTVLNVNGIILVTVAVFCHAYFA
Nature of the data set: Phase 1 multiple ascending dose clinical study: pharmacodynamics. Format: in vivo. How it is done:
A phase 1 multiple ascending dose (MAD) clinical study of LX2761 in otherwise healthy subjects with type 2 diabetes (T2DM) was conducted, following an earlier, single ascending dose study of the compound's safety and tolerability. This study evaluated the safety and tolerability of orally administered LX2761 given qd (i.e., once daily) or bid (i.e., twice daily) for eight days, over a range of ascending multiple dose levels in subjects with T2DM. As secondary objectives, the study evaluated the PD and PK of LX2761. […] Subjects taking LX2761 were grouped into five cohorts: Cohort A=LX2761 dosed 0.4 mg qd for 4 days followed by LX2761 dosed 0.6 mg qd for 4 days; Cohort A2=LX2761 dosed 0.2 mg bid for 8 days; Cohort B=LX2761 dosed 0.6 mg qd for 4 days followed by LX2761 dosed 0.8 mg qd for 4 days; Cohort C=LX2761 dosed 0.6 mg qd for 4 days followed by LX2761 dosed 1.0 mg qd for 4 days; Cohort C1=LX2761 dosed 0.4 mg bid for 8 days.

Setting [6] is: T2DM subjects, oral qd or bid for eight days.

As for `CS[C@H]1O[C@@H](c2ccc(C)c(Cc3ccc(CCCC(=O)NC(C)(C)C(=O)NCCN(C)C)cc3)c2)[C@H](O)[C@@H](O)[C@@H]1O` [LX2761, N-(1-((2-(dimethylamino)ethyl)-amino)-2-methyl-1-oxopropan-2-yl)-4-(4-(2-methyl-5-((2S,3R,4R,5S,6R)-3,4,5-trihydroxy-6-(methylthio)tetrahydro-2H-pyran-2-yl)benzyl)phenyl)butanamide], the glycemic control result in data set [1] (FIG. 1) is given as “improved glycemic control”. Also, the “cecal pH” value in data set [1] (FIG. 1F) is recorded as “reduced cecal pH”. The “changes in clinical laboratory evaluations, vital signs, physical examination findings, or ECG parameters” value in data set [2] (setting [6]) is “No clinically significant changes”. Besides, the “intensity of reported TEAEs” value in data set [2] (all reported TEAEs) was “mild or moderate”. Besides, in data set [2] (human clinical trial, low doses), the “severe cramping or other adverse effects associated with existing HE agents such as lactulose” value is on record as “generally not attended by severe cramping or other adverse effects”. In data set [2] (human, in vivo), the “severe TEAEs, SAEs, deaths, or discontinuations due to TEAEs” value was “No severe TEAEs, SAEs (serious adverse events), deaths, or discontinuations due to TEAEs occurred”. For the same compound, the “most frequently reported TEAEs” value in data set [2] (mainly nausea, vomiting, and abdominal pain) is “gastrointestinal (GI) events”. In data set [2] (of 25 TEAEs, reported by 6 subjects treated with LX2761), the “number of TEAEs assessed as moderate in intensity” value was determined as 9 TEAEs. Besides, in data set [3] (all LX2761 cohorts but Cohort B, on at least one day through Day 8), the “subjects with BMs graded as BSF Scale Type 6 or 7” value is no less than 50%. Further, the “increase in mean stool frequency per day from Baseline” value in data set [3] (all LX2761 cohorts, on at least one day through Day 8) is on record as greater than 0.5 BM. Further, the “frequency of subjects with 2 or 3 BMs graded as BSF Scale Type 6 or 7 on a single day, versus placebo-treated subjects” value in data set [3] (all LX2761 cohorts, through Day 8) was “higher”. In addition, the “change in BMs meeting study criteria of moderate or severe diarrhea” value in data set [3] (human, in vivo) is listed as “No change in BMs meeting these criteria of moderate or severe diarrhea was reported”. In addition, the systemic exposure entry in data set [4] is recorded as “very low systemic exposure”. Further, in data set [5] (after the first dose), the “concentrations after the first dose (exposure)” value is on record as “mostly BLQ”. The “increase in exposure (AUC and Cmax)” value in data set [5] (ascending dose levels, moderate to high variability) is given as “generally dose-related”. Also, the absorption entry in data set [5] (oral solution) is listed as “rapid absorption”. Moreover, on SGLT1 transporter (setting [6]), the “peptide YY (PYY) after dosing” value is reported as “increases” and the “total glucagon-like peptide 1 (GLP-1) after dosing” value was “increases”. Further, the “least squares (LS) mean UGE0-24 versus Baseline” value at SGLT1 transporter (all LX2761 cohorts, at some time points) is recorded as “decreased from Baseline”. Moreover, on SGLT1 transporter (any LX2761 cohort), the “difference from placebo in change from Baseline in postprandial glucose (PPG) concentration AUC0-3” value was “No statistically significant differences from placebo” and the “difference from placebo in change from Baseline in urinary glucose excretion from 0 to 24 hours (UGE0-24)” value is given as “No statistically significant differences from placebo”. Moreover, the “PPG concentration AUC0-3 versus Baseline” value on SGLT1 transporter (each LX2761 cohort except Cohort A2, at most assessment time points) is “reduced from Baseline”.
